Assay results as given in patent publication US20030138388A1, “Peptides and the use thereof in darkening the skin” (priority 2001, published 2003).

Legend:
[1] = tested on: keratinocyte-melanocyte co-cultures; experiment: Induced pigmentation in keratinocyte-melanocyte co-cultures, DOPA staining and computerized image analysis; assay type: cell-based, Human
Method: The peptides Peptide 1 and Peptide 2 and various pigments were tested, alone or in combination, with keratinocyte-melanocyte cultures for their effect on cell pigmentation, using DOPA staining and computerized image analysis. The pigments that were tested were the pigmented natural extract Hedychium spicatum extract sold as Kapur Kachali from Amsar Private Limited (Indore, India), copper chloride from Sigma (St. Louis, Mo.) and the water-soluble melanin derivatives Melasyn-100™ from San-mar laboratories, Inc. (Elmsford, N.Y.) and MelanZe™ from Zylepsis (Ashford, Kent, United Kingdom). The pigments were tested at concentrations ranging from 0.0001%(W/V) to 1%(W/V) and peptides were tested at 50 μM.
The assay was conducted in the following manner. Human HaCaT keratinocytes (Boukamp P., et al., J Cell Biol 106, 3, 761-771 (1988)) were maintained in Dulbecco's Modified Eagle's Medium (DMEM) containing 10% fetal bovine serum (FBS), 4.5 mg/ml glucose, 2 mM L-glutamine, 50 U/ml penicillin and 50 μg/ml streptomycin (Life Technologies, Gaithersburg, Md.). Cells were maintained at <80% confluency in 5% CO2 (v/v) and were used in experimental procedures up to culture passage 15. Human primary melanocytes (Clonetics, San Diego, Calif. or Cascade Biologics, Portland, Oreg.) were maintained according to manufacturer's instructions. To establish keratinocyte-melanocyte co-cultures, 6×10^4 melanocytes were plated in each well of a 24 well plate and maintained according to manufacturer's instructions.
Melanocytes were rinsed three times with melanocyte growth media without PMA and keratinocytes (6×10^4) were plated to establish the co-cultures in this media. Co-cultures were treated for three days with test peptides and pigments, and assayed for cell viability and pigment level on the forth day. Cell viability was assayed using alamarBlue™ (Acumed International, West Lake, Ohio) following manufacturer's instructions. No change in viability was observed following three daily treatments with all tested material. All in vitro experiments were performed in triplicates, and were repeated at least three times.
Following three daily treatments, the co-cultures were briefly fixed (10% buffered formalin from Fisher Scientific, 15 minutes), washed three times with Phosphate-buffered saline (PBS, from Life Technologies) and stained with L-3,4-Dihydroxyphenylalanine (DOPA, from Sigma, St. Louis, Mo.) 0.1% in PBS, for 5 hours at 37° C., followed by two PBS washes and formalin (10%, overnight) fixation. DOPA is a substrate for tyrosinase, therefore an increase in staining represents increased tyrosinase activity and pigment production. DOPA-stained monolayers were used for image analysis. All images were obtained and analyzed with Image Pro Plus 3.0 software (Media Cybernetics, Silver Spring, Md.). Parameters measured were surface area of stained material within melanocyte and keratinocytes and the total surface area of the cells in the culture, and the relative pigmented area was calculated. A value of 100% was assigned to untreated controls, and values of treatment groups were normalized to their relevant controls. In all experiments there was no difference between PBS-treated cells and untreated controls. Data are presented with standard deviation (SigmaPlot® 5.0, SPSS Science, Chicago, Ill.).
Forskolin (Sigma, St. Louis, Mo.), a known inducer of pigmentation, served as a positive control and a reference point. Forskolin was administered at 1% (W/V).

[2] = tested on: Dark skinned Yucatan microswine; experiment: Induced pigmentation in vivo, F&M-stained histological skin sections scored for pigment deposition; parameters: key: −1: slight lightening; 0: No change; 1: Minimal increase in pigment deposition; 2: Increased pigment deposition; 3: Strong increase in pigment deposition, some increase in caps; 4: Strong increase in pigment deposition, strong increase in caps; conditions: topical twice a day, five days/week, eight or nine weeks, average of all sites of responsive swine
Method: Compositions of the present invention were tested for their ability to induce in vivo pigmentation in skin cells in the following experiment. Dark skinned Yucatan microswine (Charles River, Portland, Me.) were housed in appropriately sized cages in an environmentally controlled room with a 12-hour light-12-hour dark photoperiod and supplied with food and water ad libitum. Animal care was based on the “Guide for the Care and Use of Laboratory Animals”, NIH Publication No. 85-23. Twenty μl of test peptides were applied topically, twice a day, five days/week, for eight or nine weeks, on the dorsum of the swine. Treatments of individual swine were always arranged in a head to tail order on one side, and in a tail to head order on the other side of the animal. Biopsies were taken using standard techniques.
Sections from the skin biopsies were stained with Hematoxylin and Eosin (H&E), or with Fontana-Mason (F&M), using standard procedures (Sheenan DC, Hrapckak BB, eds., Theory and Practice of Histo-technology. p. 223, 277, The C. V. Mosby Co., St. Louis (1980)). F&M staining identifies silver nitrate reducing molecules. In skin, this non-specific stain identifies primarily melanin. At least three sections per biopsy were processed. […]
F&M-stained histological skin sections were evaluated for the change in pigment deposition within the treated site. […]

[3] = Table 1, 50 μM, three daily treatments, relative pigmented area after DOPA staining, control 0.184
[4] = Table 1, 50 μM, three daily treatments, versus control

## [Cl][Cu][Cl] [CuCl2, copper chloride, reference compound]
[1]; Table 2, CuCl2 0.001% (w/v), control 0.029
  Mean area: 0.063
[1]; Table 2, CuCl2 0.001% (w/v), normalized to control
  % increase: 220%

## C=C[C@@]1(C)CC(=O)[C@]2(O)[C@@]3(C)[C@@H](O)CCC(C)(C)[C@@H]3[C@H](O)[C@H](OC(C)=O)[C@@]2(C)O1 [Forskolin, reference compound]
[1]; Table 2, Forskolin 1% (w/v), positive control, control 0.029
  Mean area: 0.067
[1]; Table 2, Forskolin 1% (w/v), positive control, normalized to control
  % increase: 231.0%
[2]; positive control at 1% (W/V)
  Score (pigment deposition): 1

## H2-Leu-Ile-Gly-Arg-Leu-NH2 (H-LIGRL-NH2) [Peptide 2]
[1]; [3]
  Mean area: 0.240
[1]; [4]
  % increase: 30.8%

## H2-Leu-Ile-Gly-Arg-NH2 (H-LIGR-NH2) [Peptide 1]
[1]; [3]
  Mean area: 0.270
[1]; [4]
  % increase: 46.8%
[1]; Table 2, Peptide 1 50 μM, normalized to control
  % increase: 279%
[1]; Table 2, Peptide 1 50 μM, three daily treatments, control 0.029
  Mean area: 0.080
[2]; peptide at 250 μM or 500 μM
  Score (pigment deposition): 2
